Measurements as given in ChEMBL document CHEMBL3621087, “Adamantane amine derivatives as dual acting NMDA receptor and voltage-gated calcium channel inhibitors for neuroprotection” (Medchemcomm, 2014).
Activity calls are given as the source filed them. The calls are words filed in the database; no cut-off is given here.

What was measured:
Mus musculus [1] = species: Mus musculus; assay: Inhibition of voltage-gated calcium channel in mouse synaptoneurosomes assessed as reduction of KCl-induced calcium influx at 100 uM after 30 mins using Fura-2 AM by fluorescence assay relative to control
Mus musculus [2] = species: Mus musculus; assay: Inhibition of NMDA receptor in mouse synaptoneurosomes assessed as reduction of NMDA/glycine-induced calcium influx at 100 uM after 30 mins using Fura-2 AM by fluorescence assay relative to control

Nc1cccc(CNC23CC4CC(CC(C4)C2)C3)c1
inhibition (Mus musculus [1]): 30% | inhibition (Mus musculus [2]): 48.3%

Nc1ccccc1CNC12CC3CC(CC(C3)C1)C2
inhibition (Mus musculus [1]): 37.1% | inhibition (Mus musculus [2]): 31.3%

COc1cccc(CNC23CC4CC(CC(C4)C2)C3)c1
inhibition (Mus musculus [1]): 44.7% | inhibition (Mus musculus [2]): 70.2%

COCCOC(=O)C1=C(C)NC(C)=C(C(=O)OC(C)C)C1c1cccc([N+](=O)[O-])c1 (stereo not given)
inhibition (Mus musculus [1]): 100% | inhibition (Mus musculus [2]): inactive

c1ccc(CNC23OC4C5C6CC(C7C6C4C72)C53)cc1 (stereo not given)
inhibition (Mus musculus [1]): 38.4% | inhibition (Mus musculus [2]): 22.2%

O=[N+]([O-])c1ccccc1CNC12CC3CC(CC(C3)C1)C2
inhibition (Mus musculus [1]): 49.2% | inhibition (Mus musculus [2]): 60.6%

NC12CC3CC(CC(C3)C1)C2
inhibition (Mus musculus [1]): 2.76% | inhibition (Mus musculus [2]): 84.6%

COc1ccc(CNC23CC4CC(CC(C4)C2)C3)cc1
inhibition (Mus musculus [1]): 71.2% | inhibition (Mus musculus [2]): 79.2%

CC12CC3CC(C)(C1)CC(N)(C3)C2
inhibition (Mus musculus [1]): 5.2% | inhibition (Mus musculus [2]): 92.5%

Nc1ccc(CNC23CC4CC(CC(C4)C2)C3)cc1
inhibition (Mus musculus [1]): 49.5% | inhibition (Mus musculus [2]): 50.4%

O=[N+]([O-])c1cccc(CNC23CC4CC(CC(C4)C2)C3)c1
inhibition (Mus musculus [1]): 14.3% | inhibition (Mus musculus [2]): 36.6%

C[C@]12N[C@H](Cc3ccccc31)c1ccccc12
inhibition (Mus musculus [1]): inactive | inhibition (Mus musculus [2]): 100%

O=[N+]([O-])c1ccc(CNC23CC4CC(CC(C4)C2)C3)cc1
inhibition (Mus musculus [1]): 85.7% | inhibition (Mus musculus [2]): 74.8%

c1ccc(CNC23CC4CC(CC(C4)C2)C3)cc1
inhibition (Mus musculus [1]): 39.6% | inhibition (Mus musculus [2]): 66.7%

c1ccc(CCNC23CC4CC(CC(C4)C2)C3)cc1
inhibition (Mus musculus [1]): 42% | inhibition (Mus musculus [2]): 89.5%
